From US20230272029A1, “CO-AGONISTS AT GLP-1 AND GIP RECEPTORS SUITABLE FOR ORAL DELIVERY” (Novo Nordisk A/S, priority 2020, published 2023)
Marks after values point to notes of the source that are not given here. Starred links: 1 amine or outer side, 2 acyl side, 3 side chain; linkers in the order of their positions; H or OH if unused. Non-standard residues stand in square brackets, D forms with d. Residues, ends and D or L forms follow the SMILES beside them. Groups on a side chain read outwards from the residue. *: point of attachment. C20 diacid = O=C(O)CCCCCCCCCCCCCCCCCCC(=O)*; C18 diacid = O=C(O)CCCCCCCCCCCCCCCCC(=O)*; γGlu = O=C(O)[C@H](CCC(=O)[*:2])N[*:1]; εLys = N[C@@H](CCCCN[*:1])C(=O)[*:2]; AEEA = NCCOCCOCC(=O)O; Aib = CC(C)(N)C(=O)O

Assay: Pharmacokinetic study in dogs after oral dosing of tablets with SNAC
Format: in vivo, Beagle dogs
Details: dog, in vivo, po
Procedure, shortened: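 Male beagle dogs were fasted and given a single oral tablet containing 3-4 mg test substance with 100-300 mg SNAC, in groups of 6-8. Plasma from serial EDTA blood samples was analysed by LC-MS, and t1/2, Cmax/D, tmax and AUC/D were obtained by non-compartmental analysis.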

| SMILES | Cmax/Dose | AUC/Dose [kg·h/L] |
| --- | --- | --- |
| CC[C@H](C)[C@H](NC(=O)[C@H](Cc1ccccc1)NC(=O)[C@H](CCC(=O)O)NC(=O)[C@H](CCCNC(=N)N)NC(=O)[C@H](C)NC(=O)[C@H](C)NC(=O)[C@H](CCC(N)=O)NC(=O)[C@H](CCCCNC(=O)[C@@H](N)CCCCNC(=O)[C@@H](N)CCCCNC(=O)CC[C@H](NC(=O)CCCCCCCCCCCCCCCCC(=O)O)C(=O)O)NC(=O)[C@H](CCC(=O)O)NC(=O)[C@H](CC(C)C)NC(=O)[C@H](CC(C)C)NC(=O)[C@@H](NC(=O)[C@H](CO)NC(=O)[C@H](Cc1ccc(O)cc1)NC(=O)[C@H](CC(=O)O)NC(=O)[C@H](CO)NC(=O)[C@@H](NC(=O)[C@H](Cc1ccccc1)NC(=O)[C@@H](NC(=O)CNC(=O)[C@H](CCC(=O)O)NC(=O)C(C)(C)NC(=O)[C@@H](N)Cc1ccc(O)cc1)[C@@H](C)O)[C@@H](C)O)[C@@H](C)CC)C(=O)N[C@@H](CCC(=O)O)C(=O)N[C@@H](Cc1c[nH]c2ccccc12)C(=O)N[C@@H](CC(C)C)C(=O)N[C@@H](CC(C)C)C(=O)N[C@@H](C)C(=O)NCC(=O)NCC(=O)N1CCC[C@H]1C(=O)N[C@@H](CO)C(=O)N[C@@H](CO)C(=O)NCC(=O)N[C@@H](C)C(=O)N1CCC[C@H]1C(=O)N1CCC[C@H]1C(=O)N1CCC[C@H]1C(=O)N[C@@H](CO)C(=O)O [Compound No. 31] (H-Y[Aib]EGTFTSDYSILLEK([εLys-εLys-γGlu-C18 diacid])QAAREFIEWLLAGGPSSGAPPPS-OH) | 0.35** kg/L |  |
| CC[C@H](C)[C@H](NC(=O)[C@H](Cc1ccccc1)NC(=O)[C@H](CCC(=O)O)NC(=O)[C@H](CCCNC(=N)N)NC(=O)[C@H](C)NC(=O)[C@H](C)NC(=O)[C@H](CCC(N)=O)NC(=O)[C@H](CCCCNC(=O)COCCOCCNC(=O)COCCOCCNC(=O)CC[C@H](NC(=O)CCCCCCCCCCCCCCCCC(=O)O)C(=O)O)NC(=O)[C@H](CCC(=O)O)NC(=O)[C@H](CC(C)C)NC(=O)[C@H](Cc1ccc(O)cc1)NC(=O)[C@@H](NC(=O)[C@H](CO)NC(=O)[C@H](Cc1ccc(O)cc1)NC(=O)[C@H](CC(=O)O)NC(=O)[C@H](CO)NC(=O)[C@@H](NC(=O)[C@H](Cc1ccccc1)NC(=O)[C@@H](NC(=O)CNC(=O)[C@H](CCC(=O)O)NC(=O)C(C)(C)NC(=O)[C@@H](N)Cc1ccc(O)cc1)[C@@H](C)O)[C@@H](C)O)[C@@H](C)CC)C(=O)N[C@@H](CCC(=O)O)C(=O)N[C@@H](Cc1c[nH]c2ccccc12)C(=O)N[C@@H](CC(C)C)C(=O)N[C@@H](CC(C)C)C(=O)N[C@@H](C)C(=O)NCC(=O)NCC(=O)N1CCC[C@H]1C(=O)N[C@@H](CO)C(=O)N[C@@H](CO)C(=O)NCC(=O)N[C@@H](C)C(=O)N1CCC[C@H]1C(=O)N1CCC[C@H]1C(=O)N1CCC[C@H]1C(=O)N[C@@H](CO)C(=O)O [Compound No. 10] (H-Y[Aib]EGTFTSDYSIYLEK([AEEA-AEEA-γGlu-C18 diacid])QAAREFIEWLLAGGPSSGAPPPS-OH) | 0.20 kg/L | 8.4 |
| CC[C@H](C)[C@H](NC(=O)[C@H](Cc1ccccc1)NC(=O)[C@H](CCC(=O)O)NC(=O)[C@H](CCCNC(=N)N)NC(=O)[C@H](C)NC(=O)[C@H](C)NC(=O)[C@H](CCC(N)=O)NC(=O)[C@H](CCCCNC(=O)[C@@H](N)CCCCNC(=O)[C@@H](N)CCCCNC(=O)CC[C@H](NC(=O)CCCCCCCCCCCCCCCCCCC(=O)O)C(=O)O)NC(=O)[C@H](CCC(=O)O)NC(=O)[C@H](CC(C)C)NC(=O)[C@H](Cc1ccc(O)cc1)NC(=O)[C@@H](NC(=O)[C@H](CO)NC(=O)[C@H](Cc1ccc(O)cc1)NC(=O)[C@H](CC(=O)O)NC(=O)[C@H](CO)NC(=O)[C@@H](NC(=O)[C@H](Cc1ccccc1)NC(=O)[C@@H](NC(=O)CNC(=O)[C@H](CCC(=O)O)NC(=O)C(C)(C)NC(=O)[C@@H](N)Cc1ccc(O)cc1)[C@@H](C)O)[C@@H](C)O)[C@@H](C)CC)C(=O)N[C@@H](CC(N)=O)C(=O)N[C@@H](Cc1c[nH]c2ccccc12)C(=O)N[C@@H](CC(C)C)C(=O)N[C@@H](CC(C)C)C(=O)N[C@@H](C)C(=O)NCC(=O)NCC(=O)N1CCC[C@H]1C(=O)N[C@@H](CO)C(=O)N[C@@H](CO)C(=O)NCC(=O)N[C@@H](C)C(=O)N1CCC[C@H]1C(=O)N1CCC[C@H]1C(=O)N1CCC[C@H]1C(=O)N[C@@H](CO)C(=O)O [Compound No. 16] (H-Y[Aib]EGTFTSDYSIYLEK([εLys-εLys-γGlu-C20 diacid])QAAREFINWLLAGGPSSGAPPPS-OH) | 0.21 kg/L | 8.6 |
| CC[C@H](C)[C@H](NC(=O)[C@H](Cc1ccccc1)NC(=O)[C@H](CCC(=O)O)NC(=O)[C@H](CCC(=O)O)NC(=O)[C@H](C)NC(=O)[C@H](C)NC(=O)[C@H](CCC(N)=O)NC(=O)[C@H](CCCCNC(=O)[C@@H](N)CCCCNC(=O)[C@@H](N)CCCCNC(=O)CC[C@H](NC(=O)CCCCCCCCCCCCCCCCC(=O)O)C(=O)O)NC(=O)[C@H](CCC(=O)O)NC(=O)[C@H](CC(C)C)NC(=O)[C@H](CC(C)C)NC(=O)[C@@H](NC(=O)[C@H](CO)NC(=O)[C@H](Cc1ccc(O)cc1)NC(=O)[C@H](CC(=O)O)NC(=O)[C@H](CO)NC(=O)[C@@H](NC(=O)[C@H](Cc1ccccc1)NC(=O)[C@@H](NC(=O)CNC(=O)[C@H](CCC(=O)O)NC(=O)C(C)(C)NC(=O)[C@@H](N)Cc1ccc(O)cc1)[C@@H](C)O)[C@@H](C)O)[C@@H](C)CC)C(=O)N[C@@H](CC(N)=O)C(=O)N[C@@H](Cc1c[nH]c2ccccc12)C(=O)N[C@@H](CC(C)C)C(=O)N[C@@H](CC(C)C)C(=O)N[C@@H](C)C(=O)NCC(=O)NCC(=O)N1CCC[C@H]1C(=O)N[C@@H](CO)C(=O)N[C@@H](CO)C(=O)NCC(=O)N[C@@H](C)C(=O)N1CCC[C@H]1C(=O)N1CCC[C@H]1C(=O)N1CCC[C@H]1C(=O)N[C@@H](CO)C(=O)O [Compound No. 25] (H-Y[Aib]EGTFTSDYSILLEK([εLys-εLys-γGlu-C18 diacid])QAAEEFINWLLAGGPSSGAPPPS-OH) | 0.30 kg/L |  |
